Source: patent EP2913057B1, “Cancer peptide therapeutics” (Indiana University Research and Technology Corporation, priority 2008, dated 2010)
“Also recorded” adds a separate entry of the source. Residues, ends and D or L forms follow the SMILES beside them.

Legend:
[1] = tested on: U937 cells; experiment: Cytotoxicity (apoptosis / cell death) of R9-linked caPCNA peptides by flow cytometry; type: cell-based; settings: 24 hours; for % cancer cell death: 30mM of peptide, flow cytometry
Experimental: First, it was tested whether or not the R9 sequence alone had any cytotoxic effect in U937 cells. The U937 cells were treated with up to 100mM of the R9 sequence for 24 hours.
Once it was established that the R9 sequence promoted cellular uptake of the peptide, increasing amounts of R9-caPep were added to U937 cells to determine if the peptide's uptake would have any cytotoxic effect.
To verify that the cytotoxicity of the R9-caPep was due to the PCNA peptide sequence itself, a scrambled peptide using the same eight amino acids, R9-Scrambled, was prepared (Table 3).
The cancer associated epitope of PCNA is also part of the flexible IDCL region of PCNA. This region of PCNA is considered to have a disordered structure. Disordered regions in proteins are usually associated with protein-to-protein interaction sites. […] To determine which amino acids in the R9-caPep sequence are necessary for binding of the peptide to these proteins, peptide constructs were generated that mutated each aminoacid individually to an alanine (Table 3). Each alanine mutant peptide of caPCNA was used to treat U937 cells for 24 hours. An amino acid that is important to protein binding would presumably show decreased cell cytotoxicity when it is substituted with an alanine. Those amino acids which are not critical for binding could be anticipated to show a cytotoxic level similar to that of the unsubstituted peptide. For a comparison of the potential cytotoxic effect of each of the alanine substituted R9-linked caPeptides, U937 cells were treated with 30mM of peptide. […] It was observed that peptides containing an alanine substituted at position aa126 or aa133 show little cytotoxic activity and therefore were likely important for the peptide's activity.

[2] = tested on: MCF 7 (breast cancer); experiment: Cytotoxic effect in malignant breast cells, cell death by flow cytometry; type: cell-based; parameters: dose or concentration left out as unconfirmed; settings: 48 hours
Experimental: The R9-caPeptide was evaluated for cytotoxic effects in non-malignant (MCF 10A) and malignant (MCF 7) breast cells (Table 6). The cells were treated with 50 mM R9-caPeptide for 48 hours and the extent of cell death was evaluated by flow cytometry. […] The significant level of cytotoxicity in breast cancer cells is likely due to enhanced binding interaction of caPeptide with specific DNA repair proteins in these cells, as indicated for example by the observed preferential binding of caPCNA for XPG protein, leading to an inhibition of DNA repair in these cells, and ultimately cell death.

[3] = tested on: U937 cells; experiment: cells; settings: Homo sapiens, U-937, read-out: cell death

Compound	% cancer cell death [1]	other results
RRRRRRRRRCCLGIAEQEY [A4-sub. peptide, R9-linked caPCNA peptide, alanine at aa129]	80±7%	
RRRRRRRRRCCLGIPEQEA [A8-sub. peptide, R9-linked caPCNA peptide, alanine at aa133]	7±6%	
RRRRRRRRRCCLGIPEQAY [A7-sub. peptide, R9-linked caPCNA peptide, alanine at aa132]	88±4%	
CC[C@H](C)[C@H](NC(=O)CNC(=O)[C@H](CC(C)C)NC(=O)[C@H](CS)NC(=O)[C@H](CS)NC(=O)[C@@H](CCCNC(=N)N)NC(=O)[C@@H](CCCNC(=N)N)NC(=O)[C@@H](CCCNC(=N)N)NC(=O)[C@@H](CCCNC(=N)N)NC(=O)[C@@H](CCCNC(=N)N)NC(=O)[C@@H](CCCNC(=N)N)NC(=O)[C@@H](CCCNC(=N)N)NC(=O)[C@@H](CCCNC(=N)N)NC(=O)[C@H](N)CCCNC(=N)N)C(=O)N1CCC[C@H]1C(=O)N[C@@H](CCC(=O)O)C(=O)N[C@@H](CCC(N)=O)C(=O)N[C@@H](CCC(=O)O)C(=O)N[C@@H](Cc1ccc(O)cc1)C(=O)O [R9-caPep]		cytotoxicity for malignant breast cells (MCF7) relative to non-malignant breast cells (MCF10A) [2]: approximately five times more cytotoxic
RRRRRRRRRCCAGIPEQEY [A1-sub. peptide, R9-linked caPCNA peptide, alanine at aa126]	8±9%	
RRRRRRRRRCCLGIPEAEY [A6-sub. peptide, R9-linked caPCNA peptide, alanine at aa131]	93±7%	
RRRRRRRRRCCLAIPEQEY [A2-sub. peptide, R9-linked caPCNA peptide, alanine at aa127]	47±13%	
RRRRRRRRRCCLGAPEQEY [A3-sub. peptide, R9-linked caPCNA peptide, alanine at aa128]	21±12%	
RRRRRRRRRCCLGIPAQEY [A5-sub. peptide, R9-linked caPCNA peptide, alanine at aa130]	45±14%	
COc1cccc2c1C(=O)c1c(O)c3c(c(O)c1C2=O)C[C@@](O)(C(=O)CO)C[C@@H]3O[C@H]1C[C@H](N)[C@H](O)[C@H](C)O1 [doxorubicin]		cytotoxicity at 0.1 µM [3]: 30%
RRRRRRRRR [R9, reference compound]		cytotoxic effect (apoptosis) ([1]; up to 100mM of the R9 sequence): did not promote apoptosis; also recorded: did not cause an increase apoptosis
CC[C@H](C)[C@H](NC(=O)CNC(=O)[C@@H](N)CC(C)C)C(=O)N1CCC[C@H]1C(=O)N[C@@H](CCC(=O)O)C(=O)N[C@@H](CCC(N)=O)C(=O)N[C@@H](CCC(=O)O)C(=O)N[C@@H](Cc1ccc(O)cc1)C(=O)O [caPeptide] (H-LGIPEQEY-OH)		cytotoxic activity (apoptosis) ([1]; up to 200mM of caPeptide): did not have any cytotoxic activity; also recorded: no increase in apoptosis was detected
